Laboratory results as given in patent US4297359A, “Anti-ulcer compositions containing certain pyridyl oxime ethers” (ACF Chemiefarma NV, priority 1978, dated 1981).
Where two headings read alike, the source gives them in different places.

Key:
gastric secretion = experiment: Effects on Gastric Secretion in the Pyloric Ligated Rat (method of Shay et al.); assay type: in vivo; conditions: intraduodenal, 100 mg/kg i.d., 3 hours
Text: 1. Effects on Gastric Secretion in the Pyloric Ligated Rat
The method as described by Shay et al. (Gastroenterol. 26, 906 (1945)) was used. After overnight starvation the pylorus of a rat was ligated under halothane aenesthesia and the compound under test or vehicle only administered intraduodenally and the rats allowed to recover. They were sacrificed three hours later and the gastric juice removed. After measurement of the volume of secretion, its hydrogen ion concentration, [H^+ ], was determined by titration with 0.5 n NaOH to pH 7. Groups of 4-6 animals were used for each treatment and the inhibitory effect of the compound was ascertained by comparison of the mean values obtained with those from a simultaneously set up control group of animals which received vehicle only. Students `t` test was applied for significance between groups. The mean values for % inhibition obtained for a number of experiments are shown in the following Table 1, the dosage being 100 mg/kg i.d.

[1] = tested on: indomethacin induced gastric damage; experiment: Anti-ulcer activity: inhibition of indomethacin induced gastric damage in the rat (method of Elegbe); assay type: in vivo; conditions: po, 5 h; for inhibition in vivo at 100 mg/kg: read-out: % Inhibition (of gastric damage); for inhibition in vivo at 50 mg/kg: 50 mg/kg (footnote *) orally
Experimental: Rats were starved overnight, given indomethacin subcutaneously (15 mg/kg) and sacrificed 5 hours later. Stomachs were inflated with 0.9% saline, cut along the greater curvature, pinned out and scored for gastric damage by the following system:
Score 1-3 according to the degree of erythema and slight haemorrhage.
Score 4-6 according to the degree of mucosal erosion.
Score 7-9 according to the depth of gastric damage.
Compound or vehicle was administered orally 30 minutes prior to, and at 2 hours after dosing with indomethacin. Mean values per treatment were obtained using the above scoring system and the Mann Witney test applied for significance between such values.

androgen = conditions: J. Pharm. Sci. 58, 138-141 (1969); cited from earlier work
acetylcholine = conditions: Farmaco. Ed. Sci. 19, 668-702 (1964); cited from earlier work
[2] = read-out: % Inhibition, Volume (of gastric secretion)
[3] = read-out: % Inhibition, [H^+ ] (hydrogen ion concentration of gastric juice)
[4] = 100 mg/kg orally, 30 minutes prior to and 2 hours after indomethacin (15 mg/kg s.c.)
[5] = 30 minutes prior to and 2 hours after indomethacin (15 mg/kg s.c.)

Row | Structure (SMILES) | inhibition in vivo at 100 mg/kg (gastric secretion; [2]) | inhibition in vivo at 100 mg/kg (gastric secretion; [3]) | inhibition in vivo at 100 mg/kg [1, 4] | also measured
1 | C#CCON=C(c1ccccc1)c1ccncc1 [Compound 23, phenyl 4-pyridinyl ketone, O-propargyl oxime] | 81% |  |  | 
2 | CN(C)CCCON=C(c1ccccn1)c1cccs1 [Compound 30, 2-pyridinyl 2-thienyl ketone, O-3-N,N-dimethylaminopropyl oxime] | 78% | 64% | 77% | 
3 | CN(C)CCCON=C(c1ccccc1)c1cccnc1 [Compound 27, phenyl 3-pyridinyl ketone, O-3-N,N-dimethylaminopropyl oxime] | 85% |  |  | 
4 | CON=C(c1ccncc1)c1ccc(C(F)(F)F)cc1 [Compound 18, 4-pyridinyl 4-trifluoromethylphenyl ketone, O-methyl oxime] | 59% |  |  | 
5 | CN(C)CCON=C(c1ccccc1)c1ccccn1 [Compound 24, phenyl 2-pyridinyl ketone, O-2-N,N-dimethylaminoethyl oxime] | 81% | 36% | 100% | 
6 | CON=C(c1ccsc1)c1ccccn1 [Compound 12, 2-pyridinyl 3-thienyl ketone, O-methyl oxime] | 78% | 20% | 100% | 
7 | CON=C(c1ccccn1)c1cccs1 [Compound 11, 2-pyridinyl 2-thienyl ketone, O-methyl oxime] | 84% | 36% | 78% | 
8 | CON=C(c1ccccn1)c1ccccn1 [Compound 17, di-2-pyridinyl ketone, O-methyl oxime] | 83% | 14% | 76% | 
9 | CN(C)CCON=C(c1ccccc1)c1ccncc1 [Compound 28, phenyl 4-pyridinyl ketone, O-2-N,N-dimethylaminoethyl oxime] | 83% | 92% | 92% | 
10 | CN(C)CCCON=C(c1ccccn1)c1ccco1 [Compound 31, 2-furyl 2-pyridinyl ketone, O-3-N,N-dimethylaminopropyl oxime] | 70% | 30% | 92% | 
11 | CO/N=C(\c1ccncc1)c1ccc(Cl)cc1 [Compound 9, 4-chlorophenyl 4-pyridinyl ketone, O-methyl oxime] |  |  | 80% | 
12 | CN(C)CCCON=C(c1ccccc1)c1ccncc1 [Compound 29, phenyl 4-pyridinyl ketone, O-3-N,N-dimethylaminopropyl oxime] | 72% | 45% | 65% | 
13 | CO/N=C(\c1ccccc1)c1cccnc1 [Compound 3, phenyl 3-pyridinyl ketone, O-methyl oxime] | 87% | 50% |  | inhibition in vivo at 50 mg/kg [1, 5]: 82%
14 | CO/N=C(\c1ccccc1)c1ccncc1 [Compound 4, phenyl 4-pyridinyl ketone, O-methyl oxime] | 82% | 50% | 77% | 
15 | CCON=C(c1ccccc1)c1ccncc1 [Compound 21, phenyl 4-pyridinyl ketone, O-ethyl oxime] | 77% | 24% |  | inhibition in vivo at 50 mg/kg [1, 5]: 100%
16 | CON=C(c1ccncc1)c1ccc(C)cc1 [Compound 6, 4-methylphenyl 4-pyridinyl ketone, O-methyl oxime] | 81% | 89% | 80% | 

Row | Structure (SMILES) | inhibition in vivo at 100 mg/kg (gastric secretion; [2]) | inhibition in vivo at 100 mg/kg (gastric secretion; [3]) | inhibition in vivo at 100 mg/kg [1, 4] | also measured
17 | CO/N=C(\c1ccncc1)c1ccc(OC)cc1 [Compound 7, 4-methoxyphenyl 4-pyridinyl ketone, O-methyl oxime] |  |  | 88% | 
18 | CON=C(c1ccncc1)c1ccc(Cl)c(Cl)c1 [Compound 10, 3,4-dichlorophenyl 4-pyridinyl ketone, O-methyl oxime] |  | 49% |  | 
19 | COc1ccc(C(=NOCCN(C)C)c2cccs2)cc1 [4-methoxyphenyl 2-thienyl ketone, O-dimethylaminoethyl oxime] |  |  |  | anti-androgenic activity (androgen): showed anti-androgenic activity; effective dose relative to toxic dose (androgen): the effective dose was very close to the toxic dose
20 | CN(C)CCON=C(Cc1ccccn1)c1ccccc1 [phenyl 2-picolinyl ketone, O-dimethylaminoethyl oxime] |  |  |  | effective dose relative to toxic dose (androgen): the effective dose was very close to the toxic dose
21 | CN(C)CCON=C(c1ccccc1)c1cccnc1 [Compound 26, phenyl 3-pyridinyl ketone, O-2-N,N-dimethylaminoethyl oxime] | 84% |  |  | 
22 | CO/N=C(\c1ccccc1)c1ccccn1 [Compound 2, phenyl 2-pyridinyl ketone, O-methyl oxime] | 76% | 33% |  | inhibition in vivo at 50 mg/kg [1, 5]: 79%
23 | CN(C)CCCON=C(c1ccccc1)c1ccccn1 [Compound 25, phenyl 2-pyridinyl ketone, O-3-N,N-dimethylaminopropyl oxime] | 91% | 65% | 77% | 
24 | CO/N=C(/c1ccccc1)c1cc[n+]([O-])cc1 [Compound 32, Phenyl 4-pyridinyl ketone, O-methyl oxime, N-oxide (Z-isomer)] | 84% | 32% | 64% | 
25 | CO/N=C(\c1ccncc1)c1ccc(F)cc1 [Compound 8, 4-fluorophenyl 4-pyridinyl ketone, O-methyl oxime] | 76% | 11% | 100% | 
26 | N#CCON=C(c1ccccc1)c1ccncc1 [Compound 20, Phenyl 4-pyridinyl ketone, O-cyanomethyl oxime] |  |  |  | inhibition in vivo at 100 mg/kg [1]: 96%
27 | CON=C(c1ccncc1)c1cccs1 [Compound 14, 4-pyridinyl 2-thienyl ketone, O-methyl oxime] |  |  | 77% | 
28 | C[N+](C)(C)CCON=C(c1ccccc1)c1ccccn1.[I-] [phenyl 2-pyridinyl ketone, O-dimethylaminoethyl oxime methiodide] |  |  |  | acetylcholine antagonistic activity (acetylcholine): showed acetylcholine antagonistic activity
29 | C=CCON=C(c1ccccc1)c1ccncc1 [Compound 22, phenyl 4-pyridinyl ketone, O-allyl oxime] | 76% |  | 79% | 
30 | CON=C(c1ccncc1)c1ccc(CO)cc1 [Compound 19, 4-hydroxymethylphenyl 4-pyridinyl ketone, O-methyl oxime] | 66% | 35% | 71% | 
31 | CON=C(Cc1ccccn1)c1ccccc1 [Compound 16, phenyl 2-pyridinylmethyl ketone, O-methyl oxime] | 46% | 25% | 72% | 
32 | CON=C(c1ccccc1)c1ccncc1 [Compound 1, Phenyl 4-pyridinyl ketone, O-methyl oxime] | 82% | 41% |  | inhibition in vivo at 50 mg/kg [1, 5]: 86%
